Results reported in ChEMBL document CHEMBL1152345, “Clavatadines C-E, guanidine alkaloids from the Australian sponge Suberea clavata” (J Nat Prod, 2009).

Key:
[1] = biological target: Coagulation factor XI (Homo sapiens) (UniProt P03951); experiment: Inhibition of factor 11a at 222 uM after 10 min
[2] = biological target: Coagulation factor IX (Homo sapiens) (UniProt P00740); experiment: Inhibition of factor 9a at 222 uM after 10 min
Sequence of Coagulation factor IX (Homo sapiens) (P00740 47-191 limits assumed): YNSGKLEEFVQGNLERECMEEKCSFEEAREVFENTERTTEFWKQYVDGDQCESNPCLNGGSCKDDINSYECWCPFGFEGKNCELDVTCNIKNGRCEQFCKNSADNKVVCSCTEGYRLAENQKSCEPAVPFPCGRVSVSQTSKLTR
Sequence of Coagulation factor IX (Homo sapiens) (P00740 227-461 limits assumed): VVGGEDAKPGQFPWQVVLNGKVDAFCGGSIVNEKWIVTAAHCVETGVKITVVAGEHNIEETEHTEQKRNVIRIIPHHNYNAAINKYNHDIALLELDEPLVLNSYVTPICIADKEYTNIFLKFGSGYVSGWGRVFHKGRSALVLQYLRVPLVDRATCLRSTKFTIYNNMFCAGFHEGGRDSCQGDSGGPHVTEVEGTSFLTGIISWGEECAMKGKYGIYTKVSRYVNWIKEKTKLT

Sequence of Coagulation factor XI (Homo sapiens) (P03951 19-387 limits assumed): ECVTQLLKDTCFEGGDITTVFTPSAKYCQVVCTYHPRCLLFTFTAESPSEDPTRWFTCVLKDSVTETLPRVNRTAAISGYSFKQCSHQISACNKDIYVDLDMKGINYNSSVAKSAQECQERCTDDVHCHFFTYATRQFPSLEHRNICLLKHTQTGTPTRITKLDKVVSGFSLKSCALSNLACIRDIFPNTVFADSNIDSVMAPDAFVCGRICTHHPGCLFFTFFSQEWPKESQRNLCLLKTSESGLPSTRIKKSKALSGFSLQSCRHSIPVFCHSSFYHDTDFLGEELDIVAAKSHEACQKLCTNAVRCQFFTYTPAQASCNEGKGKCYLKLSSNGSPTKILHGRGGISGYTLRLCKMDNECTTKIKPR
Sequence of Coagulation factor XI (Homo sapiens) (P03951 388-625 limits assumed): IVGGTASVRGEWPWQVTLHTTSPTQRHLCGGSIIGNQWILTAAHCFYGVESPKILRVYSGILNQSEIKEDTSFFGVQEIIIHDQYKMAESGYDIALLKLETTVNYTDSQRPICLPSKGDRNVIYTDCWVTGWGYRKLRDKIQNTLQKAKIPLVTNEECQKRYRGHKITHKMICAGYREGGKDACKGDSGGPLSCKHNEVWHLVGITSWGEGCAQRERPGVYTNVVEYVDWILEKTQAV

| SMILES | inhibition [1] | inhibition [2] |
| --- | --- | --- |
| COC1=C(Br)[C@H](O)[C@@]2(C=C1Br)CC(C(=O)NCCCCNC(=N)N)=NO2 | 12% | < 5% |
| N=C(N)NCCCCCNC(=O)C1=NOC2(C=C(Br)C(=O)C(Br)=C2)C1 | 30% | < 5% |
| COC1=C(Br)[C@H](O)[C@@]2(C=C1Br)CC(C(=O)NCCCCCNC(=N)N)=NO2 | 30% | < 5% |
| N=C(N)NCCCCNC(=O)/C(Cc1ccc(O)c(Br)c1)=N/O | 37% | < 5% |
| COC1=C(Br)[C@@H](O)[C@]2(C=C1Br)CC(C(=O)NCCc1cnc[nH]1)=NO2 | 59% | < 5% |
| N=C(N)NCCCCNC(=O)C1=NOC2(C=C(Br)C(=O)C(Br)=C2)C1 | 17% | < 5% |
